B1: ERRα11-173: carboxyl-terminal-deleted ERRα1 variant (residues 1-173) retaining A/B and DNA binding domains, lacking E/F domains (protein)
chain: MSSQVVGIEPLYIKAEPASPDSPKGSSETETEPPVALAPGPAPTRCLPGHKEEEDGEGAGPGEQGGGKLVLSSLPKRLCLVCGDVASGYHYGVASCEACKAFFKRTIQGSIEYSCPASNECEITKRRRKACQACRFTKCLRVGMLKEGVRLDRVRGGRQKYKRRPEVDPLPFP
B2: ERRα176-423: amino-terminal-deleted ERRα1 variant (residues 76-423) lacking the A/B domain (protein)
chain: MKRLCLVCGDVASGYHYGVASCEACKAFFKRTIQGSIEYSCPASNECEITKRRRKACQACRFTKCLRVGMLKEGVRLDRVRGGRQKYKRRPEVDPLPFPGPFPAGPLAVAGGPRKTAAPVNALVSHLLVVEPEKLYAMPDPAGPDGHLPAVATLCDLFDREIVVTISWAKSIPGFSSLSLSDQMSVLQSVWMEVLVLGVAQRSLPLQDELAFAEDLVLDEEGARAAGLGELGAALLQLVRRLQALRLEREEYVLLKALALANSDSVHIEDAEAVEQLREALHEALLEYEAGRAGPGGGAERRRAGRLLLTLPLLRQTAGKVLAHFYGVKLEGKVPMHKLFLEMLEAMMD

Biological target: T1, ERRα1 (Homo sapiens, UniProt P11474)
T1 construct: expressed in transfected cells; host or cells: COS cells (whole-cell extract)
T1 sequence (P11474 1-423): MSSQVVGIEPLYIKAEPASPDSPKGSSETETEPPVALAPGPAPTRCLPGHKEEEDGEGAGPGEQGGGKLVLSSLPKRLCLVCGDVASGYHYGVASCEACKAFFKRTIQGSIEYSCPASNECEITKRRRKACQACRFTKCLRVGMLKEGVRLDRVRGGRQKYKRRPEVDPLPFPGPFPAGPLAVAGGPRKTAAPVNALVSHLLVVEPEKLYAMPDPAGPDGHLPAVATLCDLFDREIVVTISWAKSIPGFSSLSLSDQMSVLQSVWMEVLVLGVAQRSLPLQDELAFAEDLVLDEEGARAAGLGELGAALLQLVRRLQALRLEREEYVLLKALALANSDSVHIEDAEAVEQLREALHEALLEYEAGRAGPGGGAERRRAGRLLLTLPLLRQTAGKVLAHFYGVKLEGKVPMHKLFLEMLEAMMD
Test: Quantitative competition EMSA of unlabeled oligodeoxynucleotides against 32P-labeled reference consensus ERRE
Format: binding
Details: relative to reference consensus ERRE; reciprocal of fold molar excess of competitor reducing shifted probe by 50%; COS whole cell extracts
Protocol: Quantitative gel-mobility-shift assays: DNA binding was assayed in 20 μl of a buffer containing 10 mM HEPES (pH 7.5), 2.5 mM MgCl2, 50 μM EDTA, 1 mM dithiothreitol, 6% glycerol and 100 ng/μl of poly(dI-dC)·poly(dI-dC). Competition binding assays included unlabeled competitor oligonucleotide as well. […] Supershift assays contained 1 μl of a 1:10 dilution of whole antiserum. All components were mixed prior to the addition of protein. The final mixtures were incubated on ice for 15 minutes, followed by 25° C. for 15 minutes prior to separation by electrophoresis at 4° C. for 2 hours through a non-denaturing 4% polyacrylamide gel at 160 volts. Quantitation was performed with a PhosphorImager (Molecular Dynamics). The relative affinities of different sequences for binding by the protein were determined from the moles of unlabeled competitor oligonucleotide needed to reduce the fraction of probe shifted to 50%.
Knowing which genes are transcriptionally modulated by ERR may help to clarify ERR's potential role in breast cancer. To identify potential ERR-responsive genes, we examined the transcriptional regulatory regions of genes known to be involved in breast cancer for sequences capable of being bound by ERR. […] This sequence is a half-site of the consensus palindromic estrogen response element (ERE, 5′-AGGTCAnnnTGACCT (SEQ ID NO:32)) with a 3-base pair extension at the 5′ end. Searching sequence databases (the EPD Eukaryotic Promoter Database available on line from the Swiss Institute of Bioinformatics (17), and Genbank available on line from the National Center for Biotechnology Information, National Library of Medicine, National Institute of Health) facilitated the location of this consensus and similar non-consensus ERREs in human gene promoters, which were selected and tested experimentally for whether they contained authentic ERR-binding sites. Using quantitative competitive EMSAs performed similarly as described in FIG. 5 of Example 1, we identified many authentic ERR-binding sites that exist in the promoters of important genes implicated in breast cancer. These sequences and ERR's affinity for binding these sites relative to a reference consensus ERRE are shown in Table 3 (Location, distance of the ERRE sequence from the gene's transcriptional start site; Ref, reference of the gene's prognostic status or relevance to human breast cancer).

Question: For “AAAATTGTTTTGTCTAGGTCATTTGCATTTTCA (chemistry not given here) [PgR site 1]”, which “Relative binding affinity (RBA) of ERRα1 for DNA sequence” value (“Relative binding affinity (RBA)” for short) is on record?
Answer: The value was 0.14.

Question: How did the “Relative binding affinity (RBA)” value turn out when “AAAGGAACTTTCCCAAGGTCACAGAGCTGAGCT (chemistry not given here) [ErbB2]” was run?
Answer: Its value is 1.01.

Question: How did the “Relative binding affinity (RBA)” value turn out when “AGAACATCCCTTTTAAGGTCAGAACAAAGGTAT (chemistry not given here) [BRCA2]” was run?
Answer: Its value is 0.08.

Question: Which “Relative binding affinity (RBA)” value does the source give for “ATGTTTGGTATGAAAAGGTCACATTTTATATTC (chemistry not given here) [ERα]” here?
Answer: Its value is 0.11.

Question: “CAAATAATGGGCTGAAGGTGAACTATCTTTACT (chemistry not given here) [EGF]” was tested. Which “Relative binding affinity (RBA)” value did it give?
Answer: The value was 0.14.

Question: With “CAAATTTGAAACTAAAGGTCACAGGCTGCTTTA (chemistry not given here) [Pr1 site 2]” as the molecule, how does the “Relative binding affinity (RBA)” value read?
Answer: Its value is 0.33.

Question: How did the “Relative binding affinity (RBA)” value turn out when “CCTCAGAGTGGCTCAGGGTCAGAGAAGGTAGAG (chemistry not given here) [Pr1 site 3]” was run?
Answer: Its value is 0.07.

Question: Which “Relative binding affinity (RBA)” value does the source give for “CCTGAGACTCTACCAAGGTCAGAAATGCTGCAA (chemistry not given here) [aromatase]” here?
Answer: The value was 0.17.

Question: How did the “Relative binding affinity (RBA)” value turn out when “CTCCCATCTCACTTAAGGTCAAAGCCAGGGTCC (chemistry not given here) [elk1]” was run?
Answer: Its value is 0.22.

Question: For “CTGTCGGCAGGAACAAGGTCACCCCTTGGCGTT (chemistry not given here) [IGF2 site 2]”, which “Relative binding affinity (RBA)” value is on record?
Answer: Its value is 0.25.

Question: “GCGAGGAAAGCGTGAAGGTGATTTCAGTTAATT (chemistry not given here) [cyclin D1]” was tested. Which “Relative binding affinity (RBA)” value did it give?
Answer: The value was 0.07.

Question: “GCTCCGGCTCGCTGAAGGTCACAGCCGAGGCGA (chemistry not given here) [IGF1R]” was tested. Which “Relative binding affinity (RBA)” value did it give?
Answer: Its value is 0.36.

Question: “GGGAGTTCAGGGTAAAGGTCACGGGGCCGGGGC (chemistry not given here) [hMDM2]” was tested. Which “Relative binding affinity (RBA)” value did it give?
Answer: Its value is 0.35.

Question: How did the “Relative binding affinity (RBA)” value turn out when “GGTGCTCCCACTTAGAGGTCACGCGCGGCGTCG (chemistry not given here) [ERβ]” was run?
Answer: Its value is 0.54.

Question: With “GGTGGACGCTGCTGAAGGTGAGCGAGACCCCGG (chemistry not given here) [IGF2 site 3]” as the molecule, how does the “Relative binding affinity (RBA)” value read?
Answer: The value was 0.06.

Question: With “GTAATTGCTGTACGAAGGTCAGAATCGCTACCT (chemistry not given here) [BRCA1]” as the molecule, how does the “Relative binding affinity (RBA)” value read?
Answer: The value was 0.17.

Question: With “GTAGGACCTGGATTAAGGTCAGGTTGGAGGAGA (chemistry not given here) [pS2 site 2]” as the molecule, how does the “Relative binding affinity (RBA)” value read?
Answer: The value was 0.12.

Question: Which “Relative binding affinity (RBA)” value does the source give for “TCCCTTCCCCCTGCAAGGTCACGGTGGCCACCC (chemistry not given here) [pS2 site 1]” here?
Answer: Its value is 0.49.

Question: For “TCCTAAGGACTGTCAAGGTCATCAAATACAAGG (chemistry not given here) [PgR site 3]”, which “Relative binding affinity (RBA)” value is on record?
Answer: The value was 1.45.

Question: How did the “Relative binding affinity (RBA)” value turn out when “TCCTTGCTAAACCCAAGGTCATAAATCTTTTCT (chemistry not given here) [PgR site 2]” was run?
Answer: The value was 0.91.

Question: How did the “Relative binding affinity (RBA)” value turn out when “TCGAGAGCAGTGGCGATTTGTCAAGGTCACACAGTGAG (DNA, backbone not given here) [Reference ERRE, reference compound]” was run?
Answer: Its value is 1.00.

Question: With “TGGCATATTGGGTGAAGGTCAAGGGAGTGGCTT (chemistry not given here) [Cathepsin D]” as the molecule, how does the “Relative binding affinity (RBA)” value read?
Answer: Its value is 0.49.

Question: With “TGTCCATTTTCTTCTAGGTCAACCCCAATGGTA (chemistry not given here) [Pr1 site 1]” as the molecule, how does the “Relative binding affinity (RBA)” value read?
Answer: Its value is 0.06.

System: ERE-dependent transcription in MCF-7 cells
Test: p3xERE-TK-luc luciferase reporter, transient transfection
Format: cell-based, human
Details: 0.12 or 0.25 μg expression plasmid, whole FBS, 48 h
Protocol: Transient Transfections and Luciferase Assays: To assess the role ERRα plays in regulating transcription of an ERE-containing promoter, MCF-7 or HeLa cells grown in 12-well tissue culture plates were co-transfected in parallel with 0.5 μg of pTK-luc versus p3xERE-TK-luc along with the indicated amounts of the empty cloning vector pcDNA3.1, the ERRα1 expression plasmid pcDNA3.1-hERRα1, or mutant variants thereof. Transfections were performed with the aid of the TransIT LT1 transfection reagent (PanVera, Madison, Wis.) as previously described (35). To examine the effects of ER ligands, cells were maintained in stripped medium for 48 h before transfection and the addition of 17β-estradiol (E2) (Sigma) or the pure anti-estrogen ICI-182,780 (Astra Zeneca, London, UK) dissolved in ethanol and diluted in medium to obtain the indicated concentrations. Cells were harvested 48 h post-transfection, and lysates were assayed for luciferase activity normalized to protein concentration as previously described (36).
ERRα Represses Transcription in MCF-7 Cells: Because ERRα can interfere with the binding of ERα to this ERE, might it affect estrogen-responsive transcription? To answer this question, we co-transfected ERα-positive mammary MCF-7 cells in parallel with p3xERE-TK-luc, a reporter plasmid containing three tandem copies of this ERE (FIG. 14A) or the ERE-negative control plasmid, pTK-luc, together with 0.12 or 0.25 μg of the ERRα1 expression plasmid, pcDNA3.1-hERRα1, or the empty parental expression plasmid, pcDNA3.1. After incubation for 48 h in medium containing whole FBS, the cells were harvested and assayed for luciferase activity. The presence of the EREs conferred an about 150-fold increase in transcriptional activity above the level observed in the cells transfected with the ERE-negative reporter plasmid (FIG. 14B). […] Thus, ERRα inhibits the estrogen-responsive activation of transcription from this ERE-containing promoter in this ER-positive MCF-7 cell line.
ERRα Modulates Estrogen-responsiveness in MCF-7 Cells: To directly examine the effect of ERRα on the response to estrogen, MCF-7 cells were cultured in medium containing estrogen-free charcoal-stripped FBS and cotransfected as described above but in the absence or presence of E2. […] Once again, overexpression of ERRα repressed ERE-dependent transcription approximately 3-fold while having little if any effect on transcription of the control reporter (FIG. 15A).

Question: With B1 as the molecule, how does the “Repression of ERE-dependent transcription by overexpression” value read?
Answer: Its value is “failed to repress”.

Question: Which “Repression of ERE-dependent transcription by overexpression” value does the source give for B2 here?
Answer: Its value is 2-3 fold.

Same assay, conditions: 1×10^−8 M E2, charcoal-stripped FBS

Question: With `C[C@]12CC[C@@H]3c4ccc(O)cc4CC[C@H]3[C@@H]1CC[C@@H]2O` [E2, 17β-estradiol, reference compound] as the molecule, how does the “Additional stimulation of ERE-dependent transcription over level with 10^−10 M E2” value read?
Answer: Its value is 3 fold.

Same assay, conditions: 1×10^−8 M E2, charcoal-stripped FBS, 48 h

Question: With `C[C@]12CC[C@@H]3c4ccc(O)cc4CC[C@H]3[C@@H]1CC[C@@H]2O` [E2, 17β-estradiol, reference compound] as the molecule, how does the “ERE-dependent transcription above activity without exogenous E2” value read?
Answer: Its value is “approximately 30 fold”.

Same assay, conditions: 1×10^−10 M E2, charcoal-stripped FBS, 48 h

Question: `C[C@]12CC[C@@H]3c4ccc(O)cc4CC[C@H]3[C@@H]1CC[C@@H]2O` [E2, 17β-estradiol, reference compound] was tested. Which “Induction of transcriptional activity of ERE-containing reporter above level without exogenous E2” value did it give?
Answer: The value was “approximately 10 fold”.
